# Data: patent US10232013B2, “Use of an antimicrobial peptide TP4 in treating a cancer” (Academia Sinica, priority 2016, dated 2019)
# Marks after values point to notes of the source that are not given here. Where no end group is shown, it is not given here.
# How the values were obtained:
# MB453 (MDA-MB453) cells = experiment: MTS cell viability assay, MB453; type: cell-based, human; conditions: mean±SD
# Procedure: (§1) Cell-lines used in this study were purchased from the Bioresource Collection and Research Center (BCRC) in and the cells were cultured by the standard cell culture procedures and conditions provided by the BCRC. MB231 (BCRC 60425), MB453 (BCRC 60429), and HDF cells were cultured as previously described by Ting et al. MCF7 […] cells were maintained in α-MEM medium (ThermoFisher Scientific) supplemented with 2 mM L-glutamine, 10% FBS, 0.1 mM non-essential amino acids, 1 mM sodium pyruvate, and antibiotics (100 U mL^−1 penicillin G and […] streptomycin). M10 (BCRC 60197) cells were maintained in α-MEM medium (ThermoFisher Scientific) supplemented with 10% FBS and antibiotics. With the exception of MB231 and MB453, all cells were cultured at 37° C. with 5% CO2. For the cell viability and transfection assay, 1×10^4 cells [5×10^3 M10 cells were seeded and cultured for 48 h to allow the cells sufficient time for attachment] were seeded into the wells of a 96-well plate and cultured overnight. For the transfection assays, cells were transfected with 0.1-0.4 μg FOSB/FOSAB expression plasmid (Origene Technology Inc.) and cell viability was determined after 72 h. The transfection efficiencies (number of cells expressing eGFP/all cells) of the MB231 transfection assays were determined by observing ten randomly selected fields (from three independent transfections) of control GFP plasmid transfections under an inverted microscope (Olympus, IX71) coupled to a digital camera (Olympus DP80), using an […] (LCPlanFI 20×/0.40 Ph1). CellSens standard software (Olympus) was used for image acquisition. During the drug treatment assay, inhibitors (PD98059, BAPTA-AM, and AlP II) were added 30 min prior to TP4, and cell viability was determined at indicated time-points. Transfection was performed using LipofectAMINE™ 3000 (ThermoFisher Scientific), according to the manufacturer's recommendations. Knock-down cells were generated by transducing MB231 cells with pre-synthesized FOSB (or control) shRNA lentiviral particles (Santa Cruz Biotechnology), and selecting puromycin-resistant cells in accordance with the manufacturer's standard protocol. MB231 or M10 cells stably expressing eGFP or mOrange2 were generated through transfection with peGFP-puromycin or pmOrange2-C1 plasmid, followed by puromycin (5 μg mL^−1) or G418 (500 μg mL^−1) selection as described above.
# (§2) Cell viability was quantitatively analyzed using the CellTiter-Glo® Luminescent Cell Viability Assay kit (ATP assay) and CellTiter 96® AQueous Non-Radioactive Cell Proliferation Assay kit (MTS assay) (Promega) in accordance with the manufacturer's protocol. For MTS assay, 1×10^4 cells were seeded into the wells of a 96-well plate and cultured overnight [5×10^3 M10 cells were seeded and cultured for 48 h to enable sufficient well attachment]. Cells were subsequently treated with different doses of TP4 (2.5-20 μg mL^−1) and harvested at the indicated time-points (3-24 h). Reaction mixtures (20 μL: MTS+PMS, using a ratio 20:1) were directly added to the cells, and the plates were incubated for 3 h at 37° C. Absorbance at 490 nm is directly proportional to the number of living cells in culture and was measured using a photometer (SpectraMax® i3, Molecular Devices). ATP assay was performed as previously described by Ting et al. Lactate dehydrogenase (LDH) assays were performed by quantitatively measuring cell lysis with a Cytotoxicity Detection Kit^PLUS (LDH) (Roche) in accordance with the manufacturer's protocol. The LDH standard was purchased from Cayman Chemical. Briefly, 1×10^4 cells were seeded into the wells of a 96-well plate and cultured overnight. Culture media were replaced with fresh medium containing 1% FBS and cells were subsequently treated with different doses of TP4 (2.5-20 μg mL^−1). Supernatants were harvested at 3 h. […]
# [1] = MTS cell viability assay, HDF; type: cell-based; conditions: human, HDF dermal fibroblasts, mean±SD, read-out: Cellular toxicity (cell viability), MTS assay
# Procedure: as §1, §2
sequence,measurement,setting,value
"FIHHIIGGLFSAGKAIHRLIRRRRR [TP4, tilapia piscidin 4]","Cellular toxicity (cell viability), MTS assay","MB453 (MDA-MB453) cells; MB453, TP4 2.5 μg/mL, 3 h",93.75 ± 4.33^d
same,"Cellular toxicity (cell viability), MTS assay","MB453 (MDA-MB453) cells; MB453, TP4 2.5 μg/mL, 6 h",86.51 ± 4.19^d
same,"Cellular toxicity (cell viability), MTS assay","MB453 (MDA-MB453) cells; MB453, TP4 2.5 μg/mL, 12 h",92.21 ± 6.61^d
same,"Cellular toxicity (cell viability), MTS assay","MB453 (MDA-MB453) cells; MB453, TP4 2.5 μg/mL, 24 h",87.84 ± 4.75^d
same,"Cellular toxicity (cell viability), MTS assay","MB453 (MDA-MB453) cells; MB453, TP4 5.0 μg/mL, 3 h",91.50 ± 4.32^d
same,"Cellular toxicity (cell viability), MTS assay","MB453 (MDA-MB453) cells; MB453, TP4 5.0 μg/mL, 6 h",76.46 ± 6.25^d
same,"Cellular toxicity (cell viability), MTS assay","MB453 (MDA-MB453) cells; MB453, TP4 5.0 μg/mL, 12 h",80.18 ± 5.41^d
same,"Cellular toxicity (cell viability), MTS assay","MB453 (MDA-MB453) cells; MB453, TP4 5.0 μg/mL, 24 h",87.00 ± 4.16^d
same,"Cellular toxicity (cell viability), MTS assay","MB453 (MDA-MB453) cells; MB453, TP4 10.0 μg/mL, 3 h",77.82 ± 4.33^d
same,"Cellular toxicity (cell viability), MTS assay","MB453 (MDA-MB453) cells; MB453, TP4 10.0 μg/mL, 6 h",58.58 ± 5.43^d
same,"Cellular toxicity (cell viability), MTS assay","MB453 (MDA-MB453) cells; MB453, TP4 10.0 μg/mL, 12 h",62.25 ± 10.74^d
same,"Cellular toxicity (cell viability), MTS assay","MB453 (MDA-MB453) cells; MB453, TP4 10.0 μg/mL, 24 h",77.24 ± 4.07^d
same,"Cellular toxicity (cell viability), MTS assay","MB453 (MDA-MB453) cells; MB453, TP4 15.0 μg/mL, 3 h",53.12 ± 10.90^d
same,"Cellular toxicity (cell viability), MTS assay","MB453 (MDA-MB453) cells; MB453, TP4 15.0 μg/mL, 6 h",27.09 ± 2.54^d
same,"Cellular toxicity (cell viability), MTS assay","MB453 (MDA-MB453) cells; MB453, TP4 15.0 μg/mL, 12 h",27.32 ± 5.51^d
same,"Cellular toxicity (cell viability), MTS assay","MB453 (MDA-MB453) cells; MB453, TP4 15.0 μg/mL, 24 h",58.93 ± 2.80^d
same,"Cellular toxicity (cell viability), MTS assay","MB453 (MDA-MB453) cells; MB453, TP4 20.0 μg/mL, 3 h",36.33 ± 5067^d
same,"Cellular toxicity (cell viability), MTS assay","MB453 (MDA-MB453) cells; MB453, TP4 20.0 μg/mL, 6 h",18.25 ± 1.80^d
same,"Cellular toxicity (cell viability), MTS assay","MB453 (MDA-MB453) cells; MB453, TP4 20.0 μg/mL, 12 h",15.02 ± 4.28^d
same,"Cellular toxicity (cell viability), MTS assay","MB453 (MDA-MB453) cells; MB453, TP4 20.0 μg/mL, 24 h",40.15 ± 2.66^d
same,"viability at 3 h, 2.5 μg/mL","[1]; TP4 2.5 μg/mL, 3 h",105 ± 6.49%
same,"viability at 6 h, 2.5 μg/mL","[1]; TP4 2.5 μg/mL, 6 h",98.6 ± 4.42%
same,"viability at 12 h, 2.5 μg/mL","[1]; TP4 2.5 μg/mL, 12 h",100 ± 4.74%
same,"viability at 24 h, 2.5 μg/mL","[1]; TP4 2.5 μg/mL, 24 h",97.2 ± 5.62%
same,"viability at 3 h, 5 μg/mL","[1]; TP4 5.0 μg/mL, 3 h",103 ± 5.88%
same,"viability at 6 h, 5 μg/mL","[1]; TP4 5.0 μg/mL, 6 h",96.8 ± 3.43%
same,"viability at 12 h, 5 μg/mL","[1]; TP4 5.0 μg/mL, 12 h",93.8 ± 3.81%
same,"viability at 24 h, 5 μg/mL","[1]; TP4 5.0 μg/mL, 24 h",92.7 ± 6.58%
same,"viability at 3 h, 10 μg/mL","[1]; TP4 10.0 μg/mL, 3 h",102 ± 9.49%
same,"viability at 6 h, 10 μg/mL","[1]; TP4 10.0 μg/mL, 6 h",92.9 ± 2.98%
same,"viability at 12 h, 10 μg/mL","[1]; TP4 10.0 μg/mL, 12 h",89.6 ± 3.87%
same,"viability at 24 h, 10 μg/mL","[1]; TP4 10.0 μg/mL, 24 h",86.1 ± 9.39%
same,"viability at 3 h, 15 μg/mL","[1]; TP4 15.0 μg/mL, 3 h",103 ± 9030%
same,"viability at 6 h, 15 μg/mL","[1]; TP4 15.0 μg/mL, 6 h",90.8 ± 6.82%
same,"viability at 12 h, 15 μg/mL","[1]; TP4 15.0 μg/mL, 12 h",85.9 ± 4.24%
same,"viability at 24 h, 15 μg/mL","[1]; TP4 15.0 μg/mL, 24 h",82.2 ± 11.4%
same,"viability at 3 h, 20 μg/mL","[1]; TP4 20.0 μg/mL, 3 h",98.6 ± 13%
same,"viability at 6 h, 20 μg/mL","[1]; TP4 20.0 μg/mL, 6 h",81 ± 12.3%
same,"viability at 12 h, 20 μg/mL","[1]; TP4 20.0 μg/mL, 12 h",80.5 ± 1.58%
same,"viability at 24 h, 20 μg/mL","[1]; TP4 20.0 μg/mL, 24 h",72.2 ± 13.5%
